The test has as its target T1, CDK9/cyclin K (Homo sapiens, UniProt P50750).
T1 construct: purchased Thermo Fisher Scientific (Life Technologies) SelectScreen
Nature of the test: SelectScreen LanthaScreen. The class given is binding. To be noted: read-out: % displacement. An outline of the steps:
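NU5455 was profiled across the SelectScreen Broad panel of kinase activity and binding assays. Z'LYTE reactions such as CSF1R ran at apparent Km ATP, while the Adapta CAMK1 assay used ATP listed as 10. Values are given as percent.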
On the technique in general: In TR-FRET formats the signal depends on donor and acceptor labels being close together.

Each structure is given as a SMILES string.

T1 sequence (P50750 whole entry): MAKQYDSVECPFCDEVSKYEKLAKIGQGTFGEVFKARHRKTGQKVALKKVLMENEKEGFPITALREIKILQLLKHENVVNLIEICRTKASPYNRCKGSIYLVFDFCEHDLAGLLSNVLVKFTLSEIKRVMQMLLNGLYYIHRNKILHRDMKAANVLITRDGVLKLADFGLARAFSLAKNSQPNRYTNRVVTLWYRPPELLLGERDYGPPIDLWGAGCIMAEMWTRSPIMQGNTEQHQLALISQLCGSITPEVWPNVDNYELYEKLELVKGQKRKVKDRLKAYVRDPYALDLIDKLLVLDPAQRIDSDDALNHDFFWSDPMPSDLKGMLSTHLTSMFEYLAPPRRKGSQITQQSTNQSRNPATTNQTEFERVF
T1 sequence (O75909 whole entry partner): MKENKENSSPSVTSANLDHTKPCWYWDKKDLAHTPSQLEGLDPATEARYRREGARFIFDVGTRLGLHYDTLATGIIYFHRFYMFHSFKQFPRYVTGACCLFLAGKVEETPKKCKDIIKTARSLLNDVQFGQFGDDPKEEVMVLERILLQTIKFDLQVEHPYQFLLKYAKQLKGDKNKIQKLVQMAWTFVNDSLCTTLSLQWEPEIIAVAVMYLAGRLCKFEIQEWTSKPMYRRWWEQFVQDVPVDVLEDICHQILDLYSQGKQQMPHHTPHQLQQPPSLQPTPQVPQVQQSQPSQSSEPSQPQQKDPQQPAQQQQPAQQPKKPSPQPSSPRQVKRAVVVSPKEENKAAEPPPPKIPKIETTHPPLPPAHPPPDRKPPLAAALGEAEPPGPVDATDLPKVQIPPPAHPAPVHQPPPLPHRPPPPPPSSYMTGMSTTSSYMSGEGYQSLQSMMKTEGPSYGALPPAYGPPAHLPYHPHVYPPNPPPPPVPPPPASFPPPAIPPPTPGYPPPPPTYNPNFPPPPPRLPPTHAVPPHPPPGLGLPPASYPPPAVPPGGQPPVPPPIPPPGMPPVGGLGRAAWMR

Consider `CN(C(=O)CN1CCOCC1)c1ccc2sc3c(-c4cccc5c(=O)cc(N6CC7CCC(C6)O7)oc45)cccc3c2c1` [NU5455], for which the inhibition at 1 µM came out at 1%.
